# Where two headings read alike, the source gives them in different places.
# Assays:
# [1] = system: H460 lung carcinoma; assay: Cytotoxicity assay (MTT), 6 days; format: cell-based; conditions: Homo sapiens, NCI-H460, 144 h, 6 days of treatment, read-out: Toxicity 6d (IC 50, μM) H460
# Source text: (§1) Four human tumoral cell lines, namely HCT116 colon adenocarcinoma, H460 lung carcinoma, MCF-7 and MDA-MB-231 breast carcinoma cell lines, and three immortalized but non tumorigenic cell lines, namely NIH3T3 mouse fibroblasts and human breast-derived MCF10-A and MRC-5 were purchased at ATCC and cultured according to their recommendations. In order to determine the cytotoxicity associated with one compound, a microculture tetrazolium assay (MTT), as described by Carmichael et al (Cancer Res, 1996) with modifications, was used. Briefly, 5.10^3 or 2.10^4 cells were seeded per well in 24-well plates 24 hours before drug addition. Cells were treated with 0, 1, 10, 17.5, 25 and 50 μM of compound solubilized in DMSO, adjusting the total volume of DMSO (Dimethylsulfoxide) to 1%. Forty-eight hours or 6 days after treatment, the medium was replaced by PBS containing 0.5 mg/ml MTT (Sigma) and cells were incubated for 3 more hours at 37° C. before solubilization of formazan crystals in 100% DMSO. Absorbance was measured using a spectrophotometer at a wavelength of 550 nm. Cell surviving fraction and 50% inhibitory concentration were calculated. All assays were performed in triplicate.
# [2] = system: MCF-7 breast carcinoma; assay: Cytotoxicity assay (MTT), 6 days; format: cell-based; conditions: Homo sapiens, MCF7, 144 h, 6 days of treatment, read-out: Toxicity 6d (IC 50, μM) MCF7
# Source text: as §1
# [3] = system: MCF10-A; assay: Cytotoxicity assay (MTT), 6 days; format: cell-based; conditions: Homo sapiens, MCF-10A, 144 h, 6 days of treatment, read-out: Toxicity 6d (IC 50, μM) MCF10-A
# Source text: as §1
# [4] = system: MDA-MB-231 breast carcinoma; assay: Cytotoxicity assay (MTT), 6 days; format: cell-based; conditions: Homo sapiens, MDA-MB-231, 144 h, 6 days of treatment, read-out: Toxicity 6d (IC 50, μM) MDA231
# Source text: as §1
# [5] = system: MRC-5; assay: Cytotoxicity assay (MTT), 6 days; format: cell-based; conditions: Homo sapiens, MRC5, 144 h, 6 days of treatment, read-out: Toxicity 6d (IC 50, μM) MRC-5
# Source text: as §1
# [6] = system: NIH3T3 mouse fibroblasts; assay: Cytotoxicity assay (MTT), 6 days; format: cell-based; conditions: NIH3T3, 144 h, 6 days of treatment, read-out: Toxicity 6d (IC 50, μM) NIH3T3
# Source text: as §1
# [7] = system: HCT116 colon adenocarcinoma; assay: Cytotoxicity assay (MTT), 6 days; format: cell-based, human; conditions: 6 days of treatment, read-out: Toxicity 6d (IC 50, μM) HCT116
# Source text: as §1
# [8] = system: MDA-MB-231 cells; assay: Matrigel invasion assay (Boyden chamber); format: cell-based, human; conditions: for Invasion: MDA-MB-231, Boyden chamber, matrigel
# Procedure: Chemoinvasion assay was performed in Boyden chamber as described by Albini et al (Cancer Res, 1987) with some modifications. Polycarbonate membranes with 8 μm pores were coated with matrigel (125 μg/cm^2) at room temperature for 48 h. Two hours before experiments, the matrix was […] with serum-free medium containing 0.1% BSA.
# One day after seeding, 10^6 MDA-MB-231 cells were treated overnight with different concentrations of compounds (1, 10, 17.5, 25 and 50 μM). Cells were collected with Versene (Invitrogen), counted with trypan blue exclusion, rinsed twice in serum-free medium containing 0.1% BSA and resuspended in serum-free medium containing 0.1% BSA plus the appropriate concentration of compound. 10^5 treated cells were placed in the upper chamber. Medium containing 10% of FBS plus the appropriate concentration of compound was placed in the lower chamber as a chemoattractant. The Boyden chamber was incubated 6 hours at 37° C. before the cells were fixed and stained with Diff-Quick (Dade-Berhing). Cells on the upper part of the filters were removed using a cotton swab. Cells on the underside of the filters were visualised and counted under light microscope.
# [9] = system: cell architecture; assay: Cell architecture modification, phase contrast; format: cell-based; design: key: −: no effect of the compound was observed; +: an effect of the compound was observed
# [10] = system: MDA231; assay: Cytoskeleton analysis, actin staining (FITC-phalloidin); format: cell-based, human; conditions: 24 h treatment
# Procedure: Since major rearrangements of cytoskeleton are observed in tumor cells and since the small GTPases are known to regulate these events, analysis of actin cytoskeleton was performed. Subconfluent cells seeded onto coverslips were treated with different concentration of compound (1, 10, 17.5, 25 and 50 μM) or vehicle for 24 h, before being fixed in 4% formaldehyde for 15 min., permeabilized in 0.2% Triton X100 for 5 minutes and incubated in PowerBlock (Biogenex) for 10 min. Actin filaments were stained with 0.5 μg/ml fluorescein isothiocyanate (FITC)-labelled phalloidin for 1 hour. Analysis was performed using an inverted fluorescent microscope.
# [11] = system: HCT116; assay: Cell viability assay (MTT), Example 32; format: cell-based, human; conditions: Homo sapiens, HCT-116, 144 h; day 6, 10% FBS
# Procedure: FIG. 7: Antiproliferative effect of compounds on HCT116 (top) and MDA-MB-231 (bottom) cell lines measured by MTT viability assay. 2.5 10^3 (HCT116) or 7.5 10^3 (MDA-MB-231) cells were seeded in 48-well plates in growth medium containing 10% FBS, with or without various concentrations of test compounds. Cell cultures were fed every 3 days with the appropriate media. Cell viability was determined on day 6. Data were analyzed and IC50s were calculated from the dose-response curves using GraphPad Prism.
# In order to determine one compound effect on cell viability, microculture tetrazolium assay (MTT) was performed as described by Carmichael et al., (1996) with modifications. Four human tumoral cell lines, namely HCT116 colon adenocarcinoma, H460 lung carcinoma, MCF-7 and MDA-MB-231 breast carcinoma cell lines, and 3 immortalized but non tumorigenic cell lines, namely NIH3T3 mouse fibroblasts and human breast-derived MCF10-A and human lung-derived MRC-5 were purchased at ATCC and cultured according to their recommendations. Briefly, 2.5 10^3 to 2 10^4 cells per well were seeded in 48-well plates 24 hours before drug addition. Cells were treated with 0 to 200 μM (11 concentrations) of compound solubilized in DMSO, adjusting the final concentration of DMSO to 1% in the well. Six days after treatment, the medium was replaced by PBS containing 0.5 mg/ml MTT (Sigma) and cells were incubated for 1-3 hours at 37° C. before solubilization of formazan crystals in 100% DMSO. Absorbance was measured using a spectrophotometer at a wavelength of 550 nm. Data was analyzed using the GraphPad Prism software (GraphPad Software, Inc., San Diego, USA), and IC50 (dose leading to 50% cell death) was calculated from the dose-response curves.
# [12] = system: HCT116 cells; assay: Anchorage-independent cell growth assay in soft agar, Example 32; format: cell-based, human; conditions: 7 days
# Procedure: FIG. 8: Effect of the treatment of HCT116 cells with the compounds on the size of the clones grown in soft agar. 5 10^3 cells were seeded in 24-well plates in 0.3% agar-containing medium supplemented with the designated amount of compounds. After 7 days of incubation at 37° C., pictures were taken of each well and were analyzed using the ImageJ image analysis software. In particular, clone size and number were calculated. The data were analyzed using GraphPad Prism, and IC50 was calculated.
# In order to evaluate the effect of one compound on the capacity of tumour cells to grow without anchorage, HCT116 cells were seeded in soft agar. In contrast to microplate assays which average the drug's effects over an entire cell population, clonogenic assays offer the possibility of distinguishing cytotoxic agents (i.e., decreased colony number) from cytostatic agents (i.e., decreased colony size without decreased colony number; Murphy M. J. et al., 1996).
# Briefly, 5 10^3 HCT116 cells were resuspended in 300 pi of complete medium containing 0.3% soft-agar (Difco) and different concentrations of compound (8 concentrations ranging from 0 to 30 μM). Cells were then poured on a solidified layer of medium containing 0.5% of soft agar plus the compound at the same concentration as in the upper layer. Cells were incubated for 7 days' at 37° C. before pictures of each well were taken using a phase contrast microscope (Nikon) and a digital camera (Nikon Coolpix 990). Pictures were subsequently analyzed using a free image analysis software from the NIH (ImageJ) allowing to determine clones size and number.
# Data was analyzed using the GraphPad Prism software, and IC50 (dose leading to a 50% decrease of clone size or number) was calculated from dose-response curves. The ratio IC50 clone size/IC50 clone number was then calculated. When this ratio is equal to 1 (IC50 size=IC50 number), the compound is referred to as “cytotoxic”. When the ratio is close to 0 (IC50 size<<IC50 number), the compound is referred to as “cytostatic” (FIG. 6).
IC50 [11],IC50 anchorage-independent growth of HCT116 (clone size) in soft agar [12],SMILES,IC50 [1],IC50 [2],IC50 [3],IC50 [4],IC50 [5],IC50 [6],IC50 [7],"IC50 ([7]; Homo sapiens, HCT-116, 144 h)",Invasion [8],Cell architecture modification phase contrast [9],Cell architecture modification actin staining MDA231 [10],concentration giving significant inhibition of invasive properties of MDA-MB-231 cells [8]
,,"O=c1cc(COCc2ccccc2)occ1OCCCCCOc1ccc(Cl)c(Cl)c1 [EH7701, 2-(Benzyloxymethyl)-5-[5-(3,4-dichlorophenyloxy)pentyloxy]-4H-pyran-4-one]",6 µM,17.5 µM,> 50 µM,22.5 µM,20 µM,40 µM,7.5 µM,≤ 15 µM,No effect,−,cell spreading,
,,CCCc1c(OCCCCCCOc2coc(CO)cc2=O)ccc(Cl)c1Cl [EH16701],7 µM,15 µM,> 50 µM,47.5 µM,> 50 µM,> 50 µM,8.5 µM,≤ 15 µM,No effect,−,cell spreading,
,,"CCCc1c(OCCCCCCCOc2coc(CO)cc2=O)ccc(Cl)c1Cl [EH17701, 5-[7-(3,4-Dichloro-2-propylphenyloxy)heptyloxy]-2-(hydroxymethyl)-4H-pyran-4-one]",5 to 10 µM,15 µM,> 50 µM,35 µM,17.5 µM,,,,,−,cell spreading,17.5 µM
,,"CCCc1cc(Cl)c(Cl)cc1OCCCCCOc1coc(CO)cc1=O [EH30701, 5-[5-(4,5-Dichloro-2-propylphenyloxy)pentyloxy]-2-(hydroxymethyl)-4H-pyran-4-one]",15 µM,20 µM,,15 µM,,,8 µM,≤ 15 µM,Decrease,−,cell spreading,17.5 µM
1.5 to 4 µM,micromolar range,"O=c1cc(COC2CCCCO2)occ1OCCCCCn1ccc2cc(F)ccc21 (stereo not drawn) [EHT 0533, 5-[5-(5-Fluoro-indol-1-yl)-pentyloxy]-2-(tetrahydro-pyran-2-yloxymethyl)-4H-pyran-4-one]",,,,,,,,,,,,
1.5 to 4 µM,micromolar range,"Cc1cc2ccccc2n1CCCCCOc1coc(COC2CCCCO2)cc1=O (stereo not drawn) [EHT 2427, 5-[5-(2-Methyl-indol-1-yl)-pentyloxy]-2-(tetrahydro-pyran-2-yloxymethyl)-4H-pyran-4-one]",,,,,,,,,,,,
1.5 to 4 µM,micromolar range,"O=c1cc(COC2CCCCO2)occ1OCCCCCn1ccc2ccccc21 (stereo not drawn) [EHT 7395, 5-(5-Indol-1-yl-pentyloxy)-2-(tetrahydro-pyran-2-yloxymethyl)-4H-pyran-4-one]",,,,,,,,,,,,

# — US20050054629A1, “Compounds and methods of treating cell proliferative diseases” (priority 2002, published 2005)
